Measured values from PubChem BioAssay AID1963446 (Molecular Pharmacology Branch, DTP, NCI, 2024).
Where “and” joins values, the source holds several entries; their conditions need not be identical. Equal values may be shown once.

System: 993429-296-R-J1-PDC complex spheroid growth, percent test/control
Experiment: Anticancer human tumor 993429-296-R-J1-PDC patient-derived uterine sarcoma cell line growth inhibition [Asc]
Conditions: for viability, T/C: stronger effect = lower value
How it was run: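 Tumor cells were grown as multicellular spheroids with stromal HUVEC and mesenchymal stem cells and treated singly or in combination. Concentrations fell in half-log steps from the clinical Cmax, or from 10 microM where none was known.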

[1] = curve of first compound, second compound 0.03 µM
[2] = curve of first compound, second compound 0.0949 µM
[3] = curve of first compound, second compound 0.3 µM
[4] = curve of first compound, second compound 0.949 µM
[5] = curve of first compound, second compound 3 µM
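Also: spheroids exposed to compounds for seven days.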

Work on `Cn1ncnc1[C@H]1c2n[nH]c(=O)c3cc(F)cc(c23)N[C@@H]1c1ccc(F)cc1` + Cc1c(S(C)(=O)=O)c(-c2cc(F)cc(N3CCN(c4ccc(NS(=O)(=O)c5ccc(NC(CCN6CCC(C(=O)OCCCP(=O)(O)O)CC6)CSc6ccccc6)c(S(=O)(=O)C(F)(F)F)c5)cc4)CC3)c2)c(-c2ccc(Cl)cc2)n1C(C)C yielded an IC50 (curve of first compound, second compound 0.1 µM) of 9.83 nM, an IC50 (curve of first compound, second compound 0.316 µM) of 4.71 nM and an IC50 (curve of first compound, second compound 1 µM) of 3.8 nM. For the same compound, the IC50 (curve of first compound, second compound 3.16 µM) was 1.01 nM, the IC50 (curve of first compound, second compound 10 µM) was 10.1 nM and the viability, T/C (second compound 0.1 µM, first compound 0.000316 µM) was 66.9%. The viability, T/C (second compound 0.1 µM, first compound 0.001 µM) was 70.1%, the viability, T/C (second compound 0.1 µM, first compound 0.00316 µM) was 64.5% and the viability, T/C (second compound 0.1 µM, first compound 0.01 µM) was 46.7%. It also gave a viability, T/C (second compound 0.1 µM, first compound 0.0316 µM) of 34.1%, a viability, T/C (second compound 0.1 µM, first compound 0.1 µM) of 18.5% and a viability, T/C (second compound 0.316 µM, first compound 0.000316 µM) of 62.6%. For the same compound, the viability, T/C (second compound 0.316 µM, first compound 0.001 µM) was 73.7%, the viability, T/C (second compound 0.316 µM, first compound 0.00316 µM) was 50.3% and the viability, T/C (second compound 0.316 µM, first compound 0.01 µM) was 37.3%. It also gave a viability, T/C (second compound 0.316 µM, first compound 0.0316 µM) of 33.3%, a viability, T/C (second compound 0.316 µM, first compound 0.1 µM) of 14.2% and a viability, T/C (second compound 1 µM, first compound 0.000316 µM) of 68.8%. For the same compound, the viability, T/C (second compound 1 µM, first compound 0.001 µM) was 68.5%, the viability, T/C (second compound 1 µM, first compound 0.00316 µM) was 50.1% and the viability, T/C (second compound 1 µM, first compound 0.01 µM) was 35.8%. For the same compound, the viability, T/C (second compound 1 µM, first compound 0.0316 µM) was 22.7%, the viability, T/C (second compound 1 µM, first compound 0.1 µM) was 10.6% and the viability, T/C (second compound 3.16 µM, first compound 0.000316 µM) was 52.8%. The viability, T/C (second compound 3.16 µM, first compound 0.001 µM) was 48.5%, the viability, T/C (second compound 3.16 µM, first compound 0.00316 µM) was 44.3% and the viability, T/C (second compound 3.16 µM, first compound 0.01 µM) was 28.9%. For the same compound, the viability, T/C (second compound 3.16 µM, first compound 0.0316 µM) was 9.8%, the viability, T/C (second compound 3.16 µM, first compound 0.1 µM) was 10.8% and the viability, T/C (second compound 10 µM, first compound 0.000316 µM) was 103%. For the same compound, the viability, T/C (second compound 10 µM, first compound 0.001 µM) was 81%, the viability, T/C (second compound 10 µM, first compound 0.00316 µM) was 93.3% and the viability, T/C (second compound 10 µM, first compound 0.01 µM) was 50.1%. The viability, T/C (second compound 10 µM, first compound 0.0316 µM) was 12.4% and the viability, T/C (second compound 10 µM, first compound 0.1 µM) was 9.31%.
With `CNC(C)C(=O)NC1CN(S(=O)(=O)c2cccc(S(=O)(=O)N3CCC4CCC(C(=O)NC(c5ccccc5)c5ccccc5)N4C(=O)C(NC(=O)C(C)NC)C3)c2)CCC2CCC(C(=O)NC(c3ccccc3)c3ccccc3)N2C1=O` (configuration not stated) + CCN1C(C(=O)NC23CCC(C(=O)O)(CC2)CC3)C(c2cccc(Cl)c2F)C2(C(=O)Nc3cc(Cl)ccc32)C12CCCCC2 the IC50 [1] was greater than 1000 nM, the IC50 [2] was greater than 1000 nM and the IC50 [3] was greater than 1000 nM. It also gave an IC50 [4] greater than 1000 nM, an IC50 [5] of 287 nM and a viability, T/C (second compound 0.03 µM, first compound 0.00316 µM) of 71.4%. The viability, T/C (second compound 0.03 µM, first compound 0.01 µM) was 62.7%, the viability, T/C (second compound 0.03 µM, first compound 0.0316 µM) was 57.5% and the viability, T/C (second compound 0.03 µM, first compound 0.1 µM) was 57%. For the same compound, the viability, T/C (second compound 0.03 µM, first compound 0.316 µM) was 58%, the viability, T/C (second compound 0.03 µM, first compound 1 µM) was 51.7% and the viability, T/C (second compound 0.0949 µM, first compound 0.00316 µM) was 61.2%. It also gave a viability, T/C (second compound 0.0949 µM, first compound 0.01 µM) of 69.8%, a viability, T/C (second compound 0.0949 µM, first compound 0.0316 µM) of 65% and a viability, T/C (second compound 0.0949 µM, first compound 0.1 µM) of 68.7%. For the same compound, the viability, T/C (second compound 0.0949 µM, first compound 0.316 µM) was 53.7%, the viability, T/C (second compound 0.0949 µM, first compound 1 µM) was 57.3% and the viability, T/C (second compound 0.3 µM, first compound 0.00316 µM) was 64.9%. The viability, T/C (second compound 0.3 µM, first compound 0.01 µM) was 79.5%, the viability, T/C (second compound 0.3 µM, first compound 0.0316 µM) was 66.3% and the viability, T/C (second compound 0.3 µM, first compound 0.1 µM) was 53.9%. It also gave a viability, T/C (second compound 0.3 µM, first compound 0.316 µM) of 62.6%, a viability, T/C (second compound 0.3 µM, first compound 1 µM) of 59.4% and a viability, T/C (second compound 0.949 µM, first compound 0.00316 µM) of 77.3%. For the same compound, the viability, T/C (second compound 0.949 µM, first compound 0.01 µM) was 64.3%, the viability, T/C (second compound 0.949 µM, first compound 0.0316 µM) was 62.7% and the viability, T/C (second compound 0.949 µM, first compound 0.1 µM) was 65.2%. The viability, T/C (second compound 0.949 µM, first compound 0.316 µM) was 55.9%, the viability, T/C (second compound 0.949 µM, first compound 1 µM) was 61.1% and the viability, T/C (second compound 3 µM, first compound 0.00316 µM) was 77.9%. It also gave a viability, T/C (second compound 3 µM, first compound 0.01 µM) of 66.8%, a viability, T/C (second compound 3 µM, first compound 0.0316 µM) of 59.2% and a viability, T/C (second compound 3 µM, first compound 0.1 µM) of 48.3%. For the same compound, the viability, T/C (second compound 3 µM, first compound 0.316 µM) was 53.5% and the viability, T/C (second compound 3 µM, first compound 1 µM) was 47.7%.
`Cc1nc(N2CCC3(CC2)COC(C)C3N)c(CO)nc1Sc1ccnc(N)c1Cl` (configuration not stated) + CCN1C(C(=O)NC23CCC(C(=O)O)(CC2)CC3)C(c2cccc(Cl)c2F)C2(C(=O)Nc3cc(Cl)ccc32)C12CCCCC2 gave an IC50 [1] of 211 nM, an IC50 [2] of 159 nM and an IC50 [3] of 176 nM. It also gave an IC50 [4] of 144 nM, an IC50 [5] of 104 nM and a viability, T/C (second compound 0.03 µM, first compound 0.00949 µM) of 89.3%. The viability, T/C (second compound 0.03 µM, first compound 0.03 µM) was 86.2%, the viability, T/C (second compound 0.03 µM, first compound 0.0949 µM) was 68.7% and the viability, T/C (second compound 0.03 µM, first compound 0.3 µM) was 41.5%. The viability, T/C (second compound 0.03 µM, first compound 0.949 µM) was 33.3%, the viability, T/C (second compound 0.03 µM, first compound 3 µM) was 29.6% and the viability, T/C (second compound 0.0949 µM, first compound 0.00949 µM) was 92.5%. The viability, T/C (second compound 0.0949 µM, first compound 0.03 µM) was 71.7%, the viability, T/C (second compound 0.0949 µM, first compound 0.0949 µM) was 65.2% and the viability, T/C (second compound 0.0949 µM, first compound 0.3 µM) was 35.3%. The viability, T/C (second compound 0.0949 µM, first compound 0.949 µM) was 30.2%, the viability, T/C (second compound 0.0949 µM, first compound 3 µM) was 29.2% and the viability, T/C (second compound 0.3 µM, first compound 0.00949 µM) was 87.7%. The viability, T/C (second compound 0.3 µM, first compound 0.03 µM) was 79.8%, the viability, T/C (second compound 0.3 µM, first compound 0.0949 µM) was 59% and the viability, T/C (second compound 0.3 µM, first compound 0.3 µM) was 42.6%. For the same compound, the viability, T/C (second compound 0.3 µM, first compound 0.949 µM) was 29.2%, the viability, T/C (second compound 0.3 µM, first compound 3 µM) was 26.8% and the viability, T/C (second compound 0.949 µM, first compound 0.00949 µM) was 86.7%. The viability, T/C (second compound 0.949 µM, first compound 0.03 µM) was 68.5%, the viability, T/C (second compound 0.949 µM, first compound 0.0949 µM) was 55.9% and the viability, T/C (second compound 0.949 µM, first compound 0.3 µM) was 43.1%. It also gave a viability, T/C (second compound 0.949 µM, first compound 0.949 µM) of 27.6%, a viability, T/C (second compound 0.949 µM, first compound 3 µM) of 22.9% and a viability, T/C (second compound 3 µM, first compound 0.00949 µM) of 75.2%. The viability, T/C (second compound 3 µM, first compound 0.03 µM) was 69.9%, the viability, T/C (second compound 3 µM, first compound 0.0949 µM) was 50.1% and the viability, T/C (second compound 3 µM, first compound 0.3 µM) was 34%. For the same compound, the viability, T/C (second compound 3 µM, first compound 0.949 µM) was 28.8% and the viability, T/C (second compound 3 µM, first compound 3 µM) was 21.6%.
`C=CC(=O)N1CCN(c2nc(=O)n(-c3c(C)ccnc3C(C)C)c3nc(-c4c(O)cccc4F)c(F)cc23)C(C)C1` (configuration not stated) was tested, and the viability, T/C (compound 0.0316 µM) was 90.9% and 96.8% and 96.9%, the viability, T/C (compound 0.1 µM) was 104% and 92.1% and 93.1% and the viability, T/C (compound 0.316 µM) was 104% and 92.4% and 105%. For the same compound, the viability, T/C (compound 1 µM) was 102% and 106% and 110%, the viability, T/C (compound 3.16 µM) was 64.9% and 109% and 115% and the viability, T/C (compound 10 µM) was 72.8% and 77% and 94%. It also gave an IC50 (curve of compound) greater than 10000 nM.
